Where two headings read alike, the source gives them in different places.
How the values were obtained:
[1] = biological target: acetylcholinesterase (AChE) (Homo sapiens, UniProt P22303); test: biochemical
Procedure: The inhibitory effects of 4–13 on AChE were measured in vitro in 96-well plates as previously described.

PC-3 cells = test: CCK-8 cytotoxicity assay, PC-3 cells; format: cell-based
Procedure: Compounds 4–13 were tested for their cytotoxicity against two prostatic carcinoma cell lines, PC-3 and 22Rv1, according to the reported CCK-8 (Dojindo) method. In brief, cells were seeded in a 96-well plate at the appropriate cell concentration and then incubated for 24 h at 37 °C in a 100% relative humidity, 5% CO2 incubator. Compounds to be tested were diluted to the appropriate concentration with culture medium, and the amount of each compound was adjusted to 25 μL before adding to the cells. Docetaxel (S1148, Selleck) was used as a positive control. The medium was aspirated, a fresh complete medium with 10% CCK-8 was added to incubate in a 37 °C incubator for 2-4 h, and the absorbance of the soultion at 450 nm was measured by an Envision 2104 multilabel reader (PerkinElmer). The inhibition rate was calculated by taking the absorbance at 650 nm as a reference.

[2] = in vitro, 96-well plates, read-out: AChE inhibitory activity IC50

Chain of acetylcholinesterase (AChE) (P22303 32-614, species assumed): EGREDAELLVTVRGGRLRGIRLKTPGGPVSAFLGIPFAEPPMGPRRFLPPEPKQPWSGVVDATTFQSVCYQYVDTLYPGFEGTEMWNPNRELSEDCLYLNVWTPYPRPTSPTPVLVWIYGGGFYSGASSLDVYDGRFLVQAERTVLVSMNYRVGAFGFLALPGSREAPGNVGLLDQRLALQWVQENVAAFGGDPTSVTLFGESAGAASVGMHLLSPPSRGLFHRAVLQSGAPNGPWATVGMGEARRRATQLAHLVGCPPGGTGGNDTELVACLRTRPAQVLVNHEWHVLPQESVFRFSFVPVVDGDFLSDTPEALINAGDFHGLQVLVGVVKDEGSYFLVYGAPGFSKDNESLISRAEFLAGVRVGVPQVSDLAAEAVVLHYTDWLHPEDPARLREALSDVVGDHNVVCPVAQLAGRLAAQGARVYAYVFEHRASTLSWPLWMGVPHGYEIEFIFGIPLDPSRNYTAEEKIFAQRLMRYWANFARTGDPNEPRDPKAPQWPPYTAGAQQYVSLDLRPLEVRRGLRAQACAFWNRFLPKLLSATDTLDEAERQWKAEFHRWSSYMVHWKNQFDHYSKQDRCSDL

Structure (SMILES)	IC50 [1, 2]	IC50 [1]	other results
CC1=C(C)[C@H]2[C@H](Cc3c[nH]c4ccccc34)NC(=O)[C@]23C(=O)CC[C@H](O)C(=O)/C(C)=C/[C@@H](C)C/C=C/[C@H]3[C@@H]1O [Compound 4, chaetoglobosin E]	4.15 µM	–	–
C=C1[C@@H](C)[C@H]2[C@H](Cc3c[nH]c4ccccc34)NC(=O)[C@]23C(=O)CC[C@H](O)C(=O)/C(C)=C/[C@@H](C)C/C=C/[C@H]3[C@@H]1O [Compound 5, chaetoglobosin Fex]	–	31.7 µM	IC50 (PC-3 cells; Homo sapiens, PC-3, read-out: IC50 against PC-3 cells, prostatic carcinoma cell line PC-3, CCK-8, triplicate): 2.32 µM; IC50 (PC-3 cells; read-out: IC50 against PC-3 cells, prostatic carcinoma cell line PC-3, CCK-8, triplicate, listed as C5): 2.32 µM
CC1=C(C)[C@H]2[C@H](Cc3c[nH]c4ccccc34)NC(=O)[C@]23C(=O)CCC(=O)C(=O)/C(C)=C/[C@@H](C)C/C=C/[C@H]3[C@@H]1O [Compound 6, chaetoglobosin G]	–	8.71 µM	–
CC1=C(O)C(=O)[C@H]2CC(=O)[C@@]34C(=O)N[C@@H](Cc5c[nH]c6ccccc56)[C@@H]3C(C)=C(C)[C@@H](O)[C@@H]4/C=C/C[C@H](C)[C@H]12 [Compound 8, chaetoglobosin V]	1.31 µM	–	–
CC1=C(O)C(=O)[C@@H]2CC(=O)[C@@]34C(=O)N[C@@H](Cc5c[nH]c6ccccc56)[C@@H]3C(C)=C(C)[C@@H](O)[C@@H]4/C=C/C[C@H](C)[C@@H]12 [Compound 9, chaetoglobosin Vb]	23.7 µM	–	–
CC(=O)O[C@@]12CO[C@@H]1C[C@H](O)[C@@]1(C)C(=O)[C@H](O)C3=C(C)[C@@H](OC(=O)[C@H](O)[C@@H](NC(=O)OC(C)(C)C)c4ccccc4)C[C@@](O)([C@@H](OC(=O)c4ccccc4)[C@H]21)C3(C)C [docetaxel, reference compound]	–	–	IC50 (PC-3 cells; Homo sapiens, prostatic carcinoma cell line PC-3, CCK-8, triplicate, read-out: IC50 against PC-3 cells): 0.12 µM

Reference: publication PMC8948984, “Diversified Chaetoglobosins from the Marine-Derived Fungus Emericellopsis sp. SCSIO41202” (Molecules, 2022)
